Source: patent publication US20170198044A1, “COMPOSITIONS AND METHODS FOR SAFE AND EFFECTIVE IMMUNOTHERAPY” (TheraMAB LLC, priority 2014, published 2017)

Key:
Assay type in all cases: cell-based, human
[1] = tested on: anti-CD3 stimulated CFSE-labeled CD4+ T cells; assay: Treg-cell suppression assay; settings: Enbrel during Treg-cell expansion, RA patient
[2] = tested on: PBMC samples taken from RA patients; assay: In vitro RESTORE system: cytokine production by PBMC samples from RA patients; settings: OKT3 1 μg/ml
Source text: The purpose of the RESTORE method application was definition of safety parameters of the use of TAB08 antibody and the possibility of participation of RA patients in clinical trials, in particular:
To determine the levels of response of peripheral blood mononuclear cells of RA patients to various concentrations of TAB08, i.e. trace the dose-dependence of cytokine release by mononuclear cells exposed to TAB08 in vitro.
To determine the ability of methylprednisolone, which has an anti-inflammatory effect, to suppress TAB08-induced cytokine release.
(§1) PBMC were cultured in supplemented RPMI 1640 containing 10% AB-positive heat-inactivated human serum (Sigma) for two days at high cell density (HD; 1×10^7/ml) to allow tissue-like interactions. Cells were then harvested and cultured under standard conditions (1×10^6/ml) in 96 or 48-well flat-bottom tissue culture plates in a final volume of 0.2 or 0.6 ml in a humidified incubator at 37° C. with 5% CO2. Intracellular Ki67 staining was used to measure cell proliferation. For intracellular staining of Foxp3, Ki67 and CD4, cells were first surface stained, permeabilized with Fix/Perm (eBioscience), and stained with the appropriate antibodies diluted in Perm/Wash (eBioscience). FACS analysis was performed using a FACSCalibur flow cytometer (BD Biosciences). Data were analyzed using FlowJo software (TreeStar).

regulatory T cells = assay: Regulatory T cells and Ki67+ Tregs in RESTORE system, PBMC samples from RA patients (Table 16)
Protocol: as §1

Treg cells = assay: Treg-cell vs Tconv-cell expansion and proliferation in HD precultured PBMCs (flow cytometry, Ki67, CFSE); settings: 0.01 mM MP, TAB08 1 μg/mL
Protocol: Treg-cell (CD25^hiFoxp3^+) and activated Tconv-cell (CD25^loFoxp3^−) frequencies among gated CD4^+ T cells were then assessed by flow cytometry using a live light-scatter entrance gate. […] Treg-cell frequencies among CD4^+ T cells and absolute numbers of Treg cells were determined by flow cytometry after 5 days of culture. […] Treg-cell versus Tconv-cell expansion in CD25-depleted and nondepleted PBMC cultures was then assessed by flow cytometry, using a live light-scatter entrance gate followed by gates for CD4^+Foxp3^− (left dot plots) and CD4^+Foxp3^+ (right dot plots). […] Proliferation was assessed by, in Panel D, the expression of Ki67 and Panel E CFSE dilution. *denotes insufficient number of cells for evaluation. […]
Cell proliferation was measured from day 2 to 3 as radioactivity incorporated from [H^3] thymidine (1 μCi per well, Hartmann Analytic GmbH) into DNA, using a liquid scintillation counter (PerkinElmer). Results are expressed as counts per minute (cpm). […]
For phenotypic analysis, cells were stained with the appropriate antibodies for 20 min at 4° C., washed once with FACS buffer (PBS, 0.1% BSA, 0.2% NaN3), and fixed with 2% paraformaldehyde. […] Data were analyzed using FlowJo Version 9.4.11 software (TreeStar). Results are shown as log 10 fluorescence intensities. […]

Enbrel was tested, and the “effect on suppressive activity of TAB08-expanded Treg cells” value [1] was “did not lead to further enhancement of suppressive activity”.

For “OKT3: Clinical grade OKT3 (Janssen-Cilag), anti-CD3 (anti-TCR) antibody used as stimulus”, the IL-2 production [2] was 0.00 pg/mL, the “% FoxP3+/CD4+” value (regulatory T cells; Patient 0104, OKT3 1 μg_mL) was 4.96% and the “% Ki67+/FoxP3+ CD4+” value (regulatory T cells; Patient 0104, OKT3 1 μg_mL) was 84.9%. The “% FoxP3+/CD4+” value (regulatory T cells; Patient 0105, OKT3 1 μg_mL) was 5.1%, the “% Ki67+/FoxP3+ CD4+” value (regulatory T cells; Patient 0105, OKT3 1 μg_mL) was 80.5% and the “% FoxP3+/CD4+” value (regulatory T cells; Patient 0204, OKT3 1 μg_mL) was 4.52%. The “% Ki67+/FoxP3+ CD4+” value (regulatory T cells; Patient 0204, OKT3 1 μg_mL) was 77.7%, the “% FoxP3+/CD4+” value (regulatory T cells; Patient 0205, OKT3 1 μg_mL) was 4.62% and the “% Ki67+/FoxP3+ CD4+” value (regulatory T cells; Patient 0205, OKT3 1 μg_mL) was 67.7%. The “% FoxP3+/CD4+” value (regulatory T cells; Patient 0206, OKT3 1 ug_ml) was 2.79% and the “% Ki67+/FoxP3+ CD4+” value (regulatory T cells; Patient 0206, OKT3 1 ug_ml) was 80.8%.

`C[C@H]1C[C@@H]2[C@H]([C@@H](O)C[C@@]3(C)[C@H]2CC[C@]3(O)C(=O)CO)[C@@]2(C)C=CC(=O)C=C12` [MP, methylprednisolone] was tested, and the “suppression of division of CD4+ Tconv cells (CFSE)” value (Treg cells) was about 80%.
